This is an account of results in ChEMBL document CHEMBL5608230, “Systematical Mutational Analysis of FRATtide against Osteoclast Differentiation by Alanine Scanning” (ACS Med Chem Lett, 2024).

Data set [1] deals with BMMC. In words: Cytotoxicity against C57BL/6J mouse BMMC upto 20 uM incubated for 4 days by CCK-8 assay. Type of data set: toxicity, cell-based. The note with it: 96 h, time 4 day. Background: Tetrazolium assays rely on reduction of a dye to a coloured formazan, in cell work by metabolically active cells.
In data set [2] the test system is BMMC. As to the kind of experiment: Inhibition of osteoclast differentiation in M-CSF/RANKL induced C57BL/6J mouse BMMC at 10 uM medium changed every other day and measured after 7 days by TRAP staining based assay. The note with it: time 7.0 day. The class given is functional, cell-based.
Data set [3] has as its system BMMC. As to the kind of experiment: Inhibition of bone resorption in RANKL induced C57BL/6J mouse BMMC at 5 to 10 uM by Cytation-5 staining based assay. Type of data set: functional, cell-based. The settings on record: dose 5-10 µM.
The test system of data set [4] is BMMC. In words: Inhibition of F-actin ring formation in RANKL induced C57BL/6J mouse BMMC at 5 to 10 uM medium changed every other day by Hoechst 33342 and TRITC-labeled phalloidin staining based assay. Type of data set: functional, cell-based. The settings on record: dose 5-10 µM.

Calls of active or inactive are those of the source. No cut-off for these calls is given here.

As to Ac-DPHRALQQLVLSGNLIKEAVRRLHSR-NH2, in data set [1], the Activity entry is listed as “Non-Toxic”. On the same count and under the same terms, under Ac-DPHRLLQQLVLSGNLAKEAVRRLHSR-NH2 stands “Non-Toxic”. As to Ac-DPHRLLQQLVLSGNLIKEAVRRAHSR-NH2, the Activity result in data set [1] is recorded as “Non-Toxic”. On the same count and under the same terms, under Ac-DPARLLQQLVLSGNLIKEAVRRLHSR-NH2 stands “Non-Toxic”; under Ac-DPHRLLQALVLSGNLIKEAVRRLHSR-NH2, “Non-Toxic”; under Ac-DPHRLLAQLVLSGNLIKEAVRRLHSR-NH2, “Non-Toxic”. On the same count and under the same terms, under Ac-DPHRLLQQLVASGNLIKEAVRRLHSR-NH2 stands “Non-Toxic”.

Take Ac-DPHRLLQQLVLSGALIKEAVRRLHSR-NH2: in data set [1], the Activity entry is “Non-Toxic”. Regarding Ac-DPHRLLQQLVLAGNLIKEAVRRLHSR-NH2, in data set [1], the Activity entry is on record as “Non-Toxic”.

For Ac-DPHRLLQQLVLSGNLIAEAVRRLHSR-NH2, the Activity result in data set [1] is on record as “Non-Toxic”.

As to Ac-DAHRLLQQLVLSGNLIKEAVRRLHSR-NH2, the Activity result in data set [1] is “Non-Toxic”. Ac-DPHRLLQQLVLSGNLIKAAVRRLHSR-NH2: the Activity entry in data set [1] is reported as “Non-Toxic”. For the substance Ac-DPHRLAQQLVLSANLIKEAVARLHSR-NH2, in data set [1], the Activity result is given as “Non-Toxic”. Same read-out and setting: the entry for Ac-DPHRLLQQLALSGNLIKEAVRRLHSR-NH2 is “Non-Toxic”.

Take Ac-DPHALLQQLVLSGNLIKEAVRRLHSR-NH2: the Activity entry in data set [1] is recorded as “Non-Toxic”. In the case of Ac-DPHRLLQQLVLSGNLIKEAVRRLHAR-NH2, the Activity result in data set [1] was “Non-Toxic”. The same measure, in the same setting: under Ac-DPHRLLQQLVLSGNLIKEAARRLHSR-NH2 stands “Non-Toxic”; under Ac-DPHRLLQQLVLSGNLIKEAVRRLASR-NH2, “Non-Toxic”. Turning to Ac-DPHRLLQQLVLSGNLIKEAVRRLHSA-NH2, in data set [1], the Activity entry is recorded as “Non-Toxic”. On the same count and under the same terms, the entry for Ac-DPHRLLQQLVLSGNAIKEAVRRLHSR-NH2 is “Non-Toxic”. For Ac-DPHRLLQQLVLSGNLIKEAVRRLHSR-NH2, the inhibition result in data set [2] is “Active”. Also, the Activity entry in data set [1] is recorded as “Non-Toxic”. Regarding Ac-DPHRLLQQLVLSGNLIKEAVARLHSR-NH2, the inhibition entry in data set [3], in data set [2] and in data set [4] was “Active” in each case. Also, the Activity result in data set [1] is recorded as “Non-Toxic”. As for Ac-APHRLLQQLVLSGNLIKEAVRRLHSR-NH2, in data set [1], the Activity entry was “Non-Toxic”.

Ac-DPHRLLQQAVLSGNLIKEAVRRLHSR-NH2: the Activity entry in data set [1] was “Non-Toxic”. Take Ac-DPHRLLQQLVLSANLIKEAVRRLHSR-NH2: the inhibition result in data set [3], in data set [2] and in data set [4] was “Active” throughout. For the same substance, the Activity entry in data set [1] is listed as “Non-Toxic”. Take Ac-DPHRLAQQLVLSGNLIKEAVRRLHSR-NH2: the inhibition entry in data set [2] is “Active”. Further, the Activity result in data set [1] is on record as “Non-Toxic”. As for Ac-DPHRLLQQLVLSGNLIKEAVRALHSR-NH2, the Activity entry in data set [1] is on record as “Non-Toxic”.
